Each structure is given as a SMILES string.

Sequence of biotinylated Avi-POLθ[2-894] (O75417 2-894): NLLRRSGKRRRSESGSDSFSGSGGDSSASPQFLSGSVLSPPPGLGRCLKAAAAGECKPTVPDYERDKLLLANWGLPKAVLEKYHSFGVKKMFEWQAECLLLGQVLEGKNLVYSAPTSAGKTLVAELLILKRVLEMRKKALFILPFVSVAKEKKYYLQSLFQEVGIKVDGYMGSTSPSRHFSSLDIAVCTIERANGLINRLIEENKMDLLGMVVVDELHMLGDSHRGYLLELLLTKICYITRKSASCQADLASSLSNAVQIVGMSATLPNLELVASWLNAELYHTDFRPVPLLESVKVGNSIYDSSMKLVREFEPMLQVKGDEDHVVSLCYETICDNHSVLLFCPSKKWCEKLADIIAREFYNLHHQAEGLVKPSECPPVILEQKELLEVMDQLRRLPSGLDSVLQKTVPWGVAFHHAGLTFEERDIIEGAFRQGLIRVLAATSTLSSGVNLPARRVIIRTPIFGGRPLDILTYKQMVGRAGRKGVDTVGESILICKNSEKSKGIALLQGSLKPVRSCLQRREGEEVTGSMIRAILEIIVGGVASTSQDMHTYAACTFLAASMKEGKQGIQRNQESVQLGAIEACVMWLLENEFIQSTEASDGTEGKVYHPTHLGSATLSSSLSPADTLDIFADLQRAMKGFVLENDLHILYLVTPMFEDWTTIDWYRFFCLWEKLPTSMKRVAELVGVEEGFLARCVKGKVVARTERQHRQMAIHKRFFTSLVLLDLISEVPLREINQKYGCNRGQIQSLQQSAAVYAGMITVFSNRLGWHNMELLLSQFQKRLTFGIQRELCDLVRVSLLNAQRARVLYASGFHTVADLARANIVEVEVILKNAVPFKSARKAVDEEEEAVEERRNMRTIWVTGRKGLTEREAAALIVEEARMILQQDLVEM

The first assay has as its target biotinylated Avi-POLθ[2-894] (Homo sapiens (Human), UniProt O75417). The assay can be described thus: POLθ ATPase assay (ADP-Glo). To be noted: POLθ ATPase, ADP-Glo; n=2; read-out: Biochemical ATPase ADPGlo IC50. Here is the method:
In some embodiments, the ATPase assay a compound of the present disclosure is combined with biotinylated Avi-POLθ[2-894], a 50 nucleotide poly-thymine repeat single-stranded DNA, and ATP in buffer. In some embodiments, the mixture is incubated and ADP-Glo Reagent added, followed by a subsequent incubation. In some embodiments, a Kinase Detection Reagent may be added, followed by a third incubation. In some embodiments, the activity is measured via luminescence signal (e.g., measured with the EnVision multimode plate reader). POLθ-mediated ATP hydrolysis was measured using the ADP-Glo Kinase Assay (Promega Corporation, Madison, WI). Reactions were performed in white 384-well small-volume microplates (Greiner Bio-One, Frickenhausen, Germany) using a total volume of 15 μL. The ATPase reaction consisted of 1 nM biotinylated Avi-POLθ[2-894], 5 nM of a 50 nucleotide poly-thymine repeat single-stranded DNA (PolyT(50) ssDNA), and 100 μM ATP in 5 μL of assay buffer (50 mM Tris, pH 7.5, 80 mM KCl, 10 MgCl2, 1 mM DTT, 5% glycerol, 0.01% BSA, 0.01% Tween-20). Inhibition of POLΘATPase activity was determined by preparing 11-point serial dilutions of the test compounds in 100% DMSO, then transferring 30 nL of the compounds into the ATPase reaction using an Echo acoustic liquid handler (Beckman Coulter, Brea, CA). DMSO-treated wells containing either all of the reaction components (1 nM biotinylated Avi-POLθ[2-894], 5 nM PolyT(50) ssDNA, 100 μM ATP) or with assay buffer substituted for the biotinylated Avi-POLθ[2-894](0 nM biotinylated Avi-POLθ[2-894], 5 nM PolyT(50) ssDNA, 100 μM ATP) were used to define the maximum and minimum response in the assay. Following a one-hour incubation at ambient temperature, 5 μL of ADP-Glo Reagent was added to the ATPase reaction, and this mixture was allowed to incubate at ambient temperature for an additional hour. Lastly, 5 μL of Kinase Detection Reagent was added, followed by a third one-hour incubation at ambient temperature. […] Luminescence signal was measured using the EnVision multimode plate reader (Perkin Elmer. Waltham. MA). […] Non-linear regression analysis using the four-parameter logistic equation was conducted on the percent activity values of the compound dose-responses, yielding the AC50 value for each compound. Genedata Screener (Genedata. Basel, Switzerland) was used for the data analysis.
On the technique in general: ADP-Glo first removes unused ATP, then detects ADP through luciferase.
As usually defined, the IC50 is the point on the concentration scale where inhibition reaches its midpoint. Consider `COc1cnc(C(=O)N2Cc3nc(NC(=O)c4cnc(C)cc4-c4cc(Cl)ncc4OC)sc3C2)nc1`, for which the half-maximal inhibitory concentration (IC50) was in the range of 0.001 to 0.015 µM.

For the molecule `COc1cnc(Cl)cc1-c1cc(C)ncc1C(=O)Nc1nc2c(s1)C[C@@H](C(=O)N[C@H]1CC[C@@H]1O)CC2`, the IC50 is 0.15 to 0.9 µM.

With `COc1cnnc(C(=O)N2Cc3nc(NC(=O)c4cnc(C)cc4-c4cc(Cl)ncc4OC)sc3C2)c1`, the IC50 is 0.015 to 0.05 µM.

As to `COc1cnc(Cl)cc1-c1cc(C)ncc1C(=O)Nc1nc2c(s1)CN(C(=O)c1ncncc1Cl)C2`, the IC50 was 0.001 to 0.015 µM.

Take `COc1cnc(Cl)cc1-c1cc(C)ncc1C(=O)Nc1nc2c(s1)CN(C(=O)C1CCCC(OC(F)F)C1)C2` (stereo not shown): the IC50 is 0.15 to 0.9 µM.

Regarding `COc1cnc(Cl)cc1-c1cc(C)ncc1C(=O)Nc1nc2c(s1)CN(C(=O)c1ccncn1)C2`, the IC50 lay within 0.001 to 0.015 µM.

Staying with this assay, now noted: n=2; read-out: Biochemical ATPase ADPGlo IC50.
As for `COc1cnc(Cl)cc1-c1cc(C)ncc1C(=O)Nc1nc2c(s1)CC(N1CCC(O)CC1)CC2` (racemic) [Example 109, (Racemic)-2′-chloro-N-(6-(4-hydroxypiperidin-1-yl)-4,5,6,7-tetrahydrobenzo[d]thiazol-2-yl)-5′-methoxy-6-methyl-[4,4′-bipyridine]-3-carboxamide], the IC50 was in the range of 0.15 to 0.9 µM.

Regarding `COc1ccc(C#N)cc1-c1cc(C)ncc1C(=O)Nc1nc2c(s1)CN(S(=O)(=O)C1CCOC1)C2` (stereo not shown), the IC50 is 0.015 to 0.05 µM.

`COc1cnc(Cl)cc1-c1cc(C)ncc1C(=O)Nc1nc2c(s1)CN(C(=O)[C@H]1C[C@@H](O)C1)C2` [Example 185]: the 50% inhibitory concentration (IC50) fell in the range of 0.001 to 0.015 µM.

As for `COc1cnc(Cl)cc1-c1cc(C)ncc1C(=O)Nc1nc2c(s1)CN(C(=O)[C@H]1C[C@](F)(CO)C1)C2` [Example 105, 2′-chloro-N-(5-((1s,3s)-3-fluoro-3-(hydroxymethyl)cyclobutane-1-carbonyl)-5,6-dihydro-4H-pyrrolo[3,4-d]thiazol-2-yl)-5′-methoxy-6-methyl-[4,4′-bipyridine]-3-carboxamide], the IC50 lay within 0.015 to 0.05 µM.

Consider `COc1ccccc1-c1cc(C)ncc1C(=O)Nc1nc2c(s1)CN(C(=O)OC(C)(C)C)CC2` [Example 335], for which the half-maximal inhibitory concentration (IC50) is 0.15 to 0.9 µM.

Consider `COc1ccc(C#N)cc1-c1cc(C)ncc1C(=O)Nc1nc2c(s1)CN(C(=O)[C@@H]1CCCO1)CC2`, for which the IC50 fell in the range of 0.15 to 0.9 µM.

Regarding `COc1cnc(Cl)cc1-c1cc(C)ncc1C(=O)Nc1nc2c(s1)C[C@@H](C(=O)NC1CCC1)CC2` (single isomer, unassigned) [Example 29, (S or R)-2-(2′-chloro-5′-methoxy-6-methyl-[4,4′-bipyridine]-3-carboxamido)-N-cyclobutyl-4,5,6,7-tetrahydrobenzo[d]thiazole-6-carboxamide], the half-inhibitory concentration (IC50) lay in the range of 0.15 to 0.9 µM.

On to `CCNS(=O)(=O)N1CCc2nc(NC(=O)c3cnc(C)cc3-c3cc(C#N)ccc3OC)sc2C1`, for which the IC50 fell in the range of 0.05 to 0.15 µM.

Regarding `COc1ccccc1-c1cc(C)ncc1C(=O)Nc1nc2c(s1)CN(C(=O)c1cncc(C#N)c1)C2`, the IC50 is 0.05 to 0.15 µM.

For `COc1ccccc1-c1cc(C)ncc1C(=O)Nc1nc2c(s1)CN(C(=O)C1CCC1C#N)C2` (stereo not shown), the IC50 lay in the range of 0.15 to 0.9 µM.

Regarding `COc1ccccc1-c1cc(C)ncc1C(=O)Nc1nc2c(s1)CN(S(=O)(=O)NCC(C)C)C2`, the concentration for half-maximal inhibition (IC50) lay within 0.05 to 0.15 µM.

As for `COc1cnc(Cl)cc1-c1cc(C)ncc1C(=O)Nc1nc2c(s1)CN(C(=O)[C@H]1C[C@](O)(C(F)F)C1)C2` [Example 195], the IC50 fell in the range of 0.001 to 0.015 µM.

For the molecule `COc1cn2cncc2cc1-c1cc(C)ncc1C(=O)Nc1nc2c(s1)CN(C(=O)c1cccnc1OC)C2` [Example 124], the IC50 was in the range of 0.001 to 0.015 µM.

For the molecule `COc1ccccc1-c1cc(C)ncc1C(=O)Nc1nc2c(s1)CN(C(=O)c1cc(OC)n(C)n1)C2`, the IC50 is 0.15 to 0.9 µM.

For the molecule `COc1ccc(C#N)cc1-c1cc(C)ncc1C(=O)Nc1nc2c(s1)CN(C(=O)[C@@H]1CC[C@@H]1C)C2`, the IC50 fell in the range of 0.015 to 0.05 µM.

`COc1ccccc1-c1cc(C)ncc1C(=O)Nc1nc2c(s1)CN(C(=O)c1ccn(C)n1)C2`: the IC50 fell in the range of 0.05 to 0.15 µM.

On to `COc1ccccc1-c1cc(C)ncc1C(=O)Nc1nc2c(s1)CN(C(=O)c1ccnn1C)C2`, for which the IC50 fell in the range of 0.05 to 0.15 µM.

For the molecule `COc1ccccc1-c1cc(C)ncc1C(=O)Nc1nc2c(s1)CN(C(=O)C1CC3(COC3)C1)C2`, the IC50 was in the range of 0.05 to 0.15 µM.

Turning to `COc1cnc(Cl)cc1-c1cc(C)ncc1C(=O)Nc1nc2c(s1)CN(C(=O)C1CN(CC(F)F)C1)C2` [Example 24, 2′-chloro-N-(5-(1-(2,2-difluoroethyl)azetidine-3-carbonyl)-5,6-dihydro-4H-pyrrolo[3,4-d]thiazol-2-yl)-5′-methoxy-6-methyl-[4,4′-bipyridine]-3-carboxamide], the IC50 lay within 0.015 to 0.05 µM.

Turning to `COc1ccccc1-c1cc(C)ncc1C(=O)Nc1nc2c(s1)C(=O)N(C1CC1)C2`, the IC50 is at least 0.9 µM.

For the molecule `COc1cnc(Cl)cc1-c1cc(C)ncc1C(=O)Nc1nc2c(s1)CN(C(=O)c1cc(O)n(C)n1)C2` [Example 92, 2′-chloro-N-(5-(5-hydroxy-1-methyl-1H-pyrazole-3-carbonyl)-5,6-dihydro-4H-pyrrolo[3,4-d]thiazol-2-yl)-5′-methoxy-6-methyl-[4,4′-bipyridine]-3-carboxamide], the IC50 was 0.015 to 0.05 µM.

As to `COc1ccc(C#N)cc1-c1cc(C)ncc1C(=O)Nc1nc2c(s1)CN(C(=O)[C@H]1C[C@H](OC)C1)C2` [Example 221], the IC50 lay within 0.015 to 0.05 µM.

With `COc1ccccc1-c1cc(C)ncc1C(=O)Nc1nc2c(s1)CN(C(=O)c1cn(C)nc1OC)C2`, the concentration for half-maximal inhibition (IC50) lay in the range of 0.015 to 0.05 µM.

Take `COc1cnc(Cl)cc1-c1cc(C)ncc1C(=O)Nc1nc2c(s1)CN(C(=O)C1CCOCC1)C2` [Example 184]: the half-maximal inhibitory concentration (IC50) lay within 0.001 to 0.015 µM.

For the molecule `COc1cnc(C)cc1-c1cc(C)ncc1C(=O)Nc1nc2c(s1)CN(C(=O)c1ccccn1)C2` [Example 108, 5′-methoxy-2′,6-dimethyl-N-(5-picolinoyl-5,6-dihydro-4H-pyrrolo[3,4-d]thiazol-2-yl)-[4,4′-bipyridine]-3-carboxamide], the IC50 was 0.015 to 0.05 µM.

In the case of `COc1cnc(Cl)cc1-c1cc(C)ncc1C(=O)Nc1nc2c(s1)CN(C(=O)c1c(C)nn(C)c1C)C2` [Example 76, 2′-chloro-5′-methoxy-6-methyl-N-(5-(1,3,5-trimethyl-1H-pyrazole-4-carbonyl)-5,6-dihydro-4H-pyrrolo[3,4-d]thiazol-2-yl)-[4,4′-bipyridine]-3-carboxamide], the IC50 lay in the range of 0.001 to 0.015 µM.

As to `COc1cnc(Cl)cc1-c1cc(C)ncc1C(=O)Nc1nc2c(s1)CN(C(=O)c1ncon1)C2` [Example 60, N-(5-(1,2,4-oxadiazole-3-carbonyl)-5,6-dihydro-4H-pyrrolo[3,4-d]thiazol-2-yl)-2′-chloro-5′-methoxy-6-methyl-[4,4′-bipyridine]-3-carboxamide], the IC50 was in the range of 0.001 to 0.015 µM.

As to `COc1ccccc1-c1cc(C)ncc1C(=O)Nc1nc2c(s1)CN(C(=O)c1cocn1)C2`, the IC50 lay in the range of 0.15 to 0.9 µM.

In the case of `COc1cnc(Cl)cc1-c1cc(C)ncc1C(=O)Nc1nc2c(s1)CN(C(=O)[C@H]1CC[C@H](O)CC1)C2` [Example 96, 2′-chloro-N-(5-((1r,4r)-4-hydroxycyclohexane-1-carbonyl)-5,6-dihydro-4H-pyrrolo[3,4-d]thiazol-2-yl)-5′-methoxy-6-methyl-[4,4′-bipyridine]-3-carboxamide], the IC50 was in the range of 0.001 to 0.015 µM.

Regarding `COc1ccccc1-c1cc(C)ncc1C(=O)Nc1nc2c(s1)CC(Nc1ccccc1)CC2` (stereo not shown), the IC50 was at least 0.9 µM.

`COc1ccc(C#N)cc1-c1cc(C)ncc1C(=O)Nc1nc2c(s1)CN(S(=O)(=O)C1CCCOC1)C2` (racemic) [Example 233]: the half-maximal inhibitory concentration (IC50) lay in the range of 0.015 to 0.05 µM.

Regarding `COc1ccccc1-c1cc(C)ncc1C(=O)Nc1nc2c(s1)CN(C1CC1)C2=O` [Example 352, N-(5-cyclopropyl-4-oxo-5,6-dihydro-4H-pyrrolo[3,4-d]thiazol-2-yl)-4-(2-methoxyphenyl)-6-methylnicotinamide], the IC50 is at least 0.9 µM.

In the case of `COc1cnc(Cl)cc1-c1cc(C)ncc1C(=O)Nc1nc2c(s1)CN(C(=O)c1ncco1)C2` [Example 182], the IC50 lay in the range of 0.001 to 0.015 µM.

Take `COc1cnc(Cl)cc1-c1cc(C)ncc1C(=O)Nc1nc2c(s1)CN(C(=O)c1cccc(OC(F)F)n1)C2` [Example 72, 2′-chloro-N-(5-(6-(difluoromethoxy)picolinoyl)-5,6-dihydro-4H-pyrrolo[3,4-d]thiazol-2-yl)-5′-methoxy-6-methyl-[4,4′-bipyridine]-3-carboxamide]: the IC50 lay in the range of 0.001 to 0.015 µM.
